In PubChem BioAssay (NCI):
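96-well plates; 48 h exposure; 5 concentrations. Endpoints by linear interpolation between flanking doses. Not reached: highest tested concentration assigned. TGI: concentration producing complete growth inhibition.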

What was measured:
Assay in all cases: NCI tumour cell line growth inhibition, 48 h
PC-3 prostate = tested on: PC-3 prostate
HCT-15 colon = tested on: HCT-15 colon
HCC-2998 colon = tested on: HCC-2998 colon
OVCAR-5 ovarian = tested on: OVCAR-5 ovarian
A498 renal = tested on: A498 renal
A549 NSCLC = tested on: A549 NSCLC
MDA-MB-231 breast = tested on: MDA-MB-231 breast
T-47D breast = tested on: T-47D breast
SK-MEL-28 melanoma = tested on: SK-MEL-28 melanoma
EKVX NSCLC = tested on: EKVX NSCLC
TK-10 renal = tested on: TK-10 renal

SMILES | TGI (PC-3 prostate) [µM] | TGI (HCT-15 colon) [µM] | TGI (HCC-2998 colon) [µM] | TGI (OVCAR-5 ovarian) [µM] | TGI (A498 renal) [µM] | TGI (A549 NSCLC) [µM] | TGI (MDA-MB-231 breast) [µM] | TGI (T-47D breast) [µM] | TGI (SK-MEL-28 melanoma) [µM] | TGI (EKVX NSCLC) [µM] | TGI (TK-10 renal) [µM]
CC(C)CCNC(=O)c1ccc(CNC(=O)/C=C/c2ccc3c(c2)-c2ccccc2C3)cc1 | > 100 | > 100 | > 100 | > 100 | > 100 | > 100 | > 100 | > 100 | > 100 | > 100 | > 100
O=C(O)CN1CCN2CCOCCN(CC1)CCN(CC(=O)O)CC2 | > 100 | > 100 | > 100 | > 100 | > 100 | > 100 | > 100 | > 100 | > 100 | > 100 | > 100
CCO/C=N\C1=C(C#N)SC2=N/C(=C\c3ccco3)C(=O)N21 | > 100 | > 100 | > 100 | > 100 | > 100 | > 100 | > 100 | > 100 | > 100 | > 100 | > 100
C=C1C(=O)O[C@H]2[C@@H]3O[C@@](C)(CC/C=C(\C)CCC[C@@H]2C)[C@H](O)C[C@@H]13 | 22.1 | 24.4 | 31.6 | 31.2 | > 100 | 24.9 | 21.6 | 16.8 | 38.8 | > 100 | 17.4
CC(C)C1CC(CO)(CNc2nc(N)nc(Cl)c2C=O)C1 (centres undefined) | 5.16 | 32.1 | 4.32 | 96.9 | 56.1 | 31.4 | 5.14 | > 100 | 3.62 | 11.4 | > 100
O=[N+]([O-])C1=Cc2c(O)ccc(O)c2C2c3ccccc3NC12 (centres undefined) | 19 | 36.4 | 24.7 | 34.1 | 29.8 | 37.5 | 31.4 | > 55.8 | 43 | 28.6 | 30
COC(=O)c1nc2n(n1)-c1ccccc1C(=O)N(Cc1ccccc1)C2 | > 100 | > 100 | > 100 | > 100 | > 100 | > 100 | > 100 | > 100 | > 100 | > 100 | > 100
Nc1nc(NCc2ccccc2)cc(NCc2ccccc2)n1 | 16.8 | 18.3 | 24.6 | 50.4 | 14.5 | 92 | 22.4 | 25.9 | > 100 | 41 | 22.3
COc1ccc(CC(COS(=O)(=O)c2ccc(C)cc2)NS(=O)(=O)c2ccc(C)cc2)cc1 (centres undefined) | 38.9 | 41.1 | 29.5 | 39.9 | 35.8 | > 62.2 | > 84.5 | 21 | 35.2 | 31.6 | 43.6
COc1ccc(C2OC2C(=O)C23CC4CC(CC(C4)C2)C3)cc1 (centres undefined) | > 100 | > 100 | > 100 | > 100 | > 100 | > 100 | > 100 | > 100 | > 100 | > 100 | > 100
CCOC(=O)c1c2ccccc2n2c(=O)n(-c3ccccc3)nnc12 | > 100 | > 100 | > 100 | > 100 | > 100 | > 100 | > 100 | 71.5 | > 100 | > 100 | > 100
COc1ccccc1Nc1nc(N)nc(N)c1N | > 100 | > 100 | > 100 | > 100 | > 100 | > 100 | 99.6 | > 100 | > 100 | > 100 | > 100
CN(C)CCCCN1c2ccccc2Sc2ccc(N=[N+]=[N-])cc21 | 10.5 | 12.8 | 3.18 | 13.5 | 21.5 | 22.6 | 19.9 | 13.5 | 3.6 | 26.3 | 24.7
CC(=O)OCC1OC(Sc2nc(-c3ccccc3)c(C#N)c(=O)n2C2OC(COC(C)=O)C(OC(C)=O)C(OC(C)=O)C2OC(C)=O)C(OC(C)=O)C(OC(C)=O)C1OC(C)=O (centres undefined) | > 100 | > 100 | > 100 | > 100 | > 100 | > 100 | > 100 | > 100 | > 100 | > 100 | > 100
O=C(c1ccccc1)N1N=C(C(F)(F)F)CC1(O)C(F)(F)F (centres undefined) | > 100 | > 100 | > 100 | > 100 | > 100 | > 100 | > 100 | > 100 | > 100 | > 100 | > 100
COc1cc(CCNC2=CC(=O)c3ncccc3C2=O)ccc1O | 22.5 | > 34.6 | 16.8 | 22.7 | 32.4 | 6.44 | 6.24 | > 63.6 | 4.09 | 37.9 | 70.8
NS(=O)(=O)c1ccc(NCc2cccc3c(=O)c4ccc(Cl)cc4oc23)cc1 | > 100 | > 100 | > 100 | > 100 | > 100 | > 100 | > 100 | > 100 | > 100 | > 65.5 | > 100
CC12CCC(C(=Nc3ccc([N+](=O)[O-])cc3)C1=O)C2(C)C (centres undefined) | > 100 | > 100 | 38.2 | > 100 | > 100 | > 100 | 76.6 | 69.5 | 37.4 | > 100 | 59
CN(C)CCC(C#N)(c1ccccc1)c1ccccc1 | > 100 | > 100 | 34.1 | > 100 | > 100 | > 100 | > 100 | > 100 | 58.4 | > 100 | > 100
